According to patent publication US12371428B2 (Exelixis, Inc., priority 2019, dated 2025):

Assays:
[1] = target: Human Met (residues R974-S1390 with A1209G and V1290L) (Homo sapiens, UniProt P08581); experiment: Human Met kinase assay, 33P-phosphoryl transfer radiometric (Example D-1, KinaseProfiler); type: biochemical; settings: protocol of Example D-1 (compounds 21-27, 41-47, 99, 104); read-out: c-Met IC50
Protocol: (§1) Kinase activity and compound inhibition were investigated using the ^33P-Phosphoryl transfer radiometric kinase assay, performed using the KinaseProfiler™ service of Eurofins Pharma Discovery Services UK Limited. Dose-response experiments were performed using nine compound concentrations in a 96-well microtiter plate. For each assay, all compounds were prepared to a 50× final assay concentration (50 μM) in 100% DMSO, then diluted in a half-log series, with the final top concentration at 1 μM. This working stock of the compound was added to the assay well as the first component in the reaction, followed by the remaining components as detailed in the following assay protocols below. The positive control wells (100% kinase activity) contain all components of the reaction including 2% DMSO (control for solvent effects), except the compound of interest. Blank wells contain all components of the reaction, with the reference inhibitor, staurosporine. This reference compound was used to abolish kinase activity and generated the 0% kinase activity base-line. IC50 values were calculated by nonlinear regression analysis using the sigmoidal dose-response (variable slope) curve fit on XLFit version 5.3 (ID Business Solutions).
Example D-1: Human Met (residues R974-S1390 with A1209G and V1290L, 3.4 nM) was incubated with 8 mM MOPS pH 7.0, 0.2 mM EDTA, 250 µM […] (SEQ ID NO:3), 1 mM sodium orthovanadate, 5 mM […], 10 mM magnesium acetate, and 10 μM [γ-^33P-ATP]. The reaction was initiated by the addition of the Mg/ATP mix. After incubation for 40 minutes at room temperature, the reaction was stopped by the addition of phosphoric acid to a concentration of 0.5%. A reaction aliquot of 10 μL was then spotted onto a P30 filtermat and washed four times for 4 minutes in 0.425% phosphoric acid and once in methanol prior to drying and scintillation counting. Incorporated ^33P was measured using the Wallac Microbeta scintillation counter (Perkin Elmer).

[2] = target: Human KDR (residues K790-V1356) (Homo sapiens (Human), UniProt P35968); experiment: Human KDR kinase assay, 33P-phosphoryl transfer radiometric (Example B-1, KinaseProfiler); type: biochemical; settings: protocol of Example B-1 (compounds 21-27, 41-47, 99, 104)
Chain of Human KDR (residues K790-V1356) (P35968 790-1356): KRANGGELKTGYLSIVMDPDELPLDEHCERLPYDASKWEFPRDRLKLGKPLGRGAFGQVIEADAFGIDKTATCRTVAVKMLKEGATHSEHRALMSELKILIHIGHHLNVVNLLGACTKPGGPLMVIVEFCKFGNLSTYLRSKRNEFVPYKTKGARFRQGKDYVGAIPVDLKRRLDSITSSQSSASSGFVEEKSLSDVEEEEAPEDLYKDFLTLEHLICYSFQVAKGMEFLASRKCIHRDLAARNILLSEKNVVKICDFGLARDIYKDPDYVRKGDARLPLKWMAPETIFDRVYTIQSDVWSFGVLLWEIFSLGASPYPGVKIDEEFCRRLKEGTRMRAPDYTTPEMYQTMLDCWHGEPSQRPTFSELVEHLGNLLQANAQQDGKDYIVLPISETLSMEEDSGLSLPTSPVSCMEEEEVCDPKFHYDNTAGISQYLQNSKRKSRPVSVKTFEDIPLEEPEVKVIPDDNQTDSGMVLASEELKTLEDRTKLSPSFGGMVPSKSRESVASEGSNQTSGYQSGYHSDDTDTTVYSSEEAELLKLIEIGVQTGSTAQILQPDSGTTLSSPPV
Protocol: as §1
Example B-1: Human KDR (residues K790-V1356, 55 nM) was incubated with 8 mM MOPS pH 7.0, 0.2 mM EDTA, 0.33 mg/mL myelin basic protein, 10 mM magnesium acetate, and 10 μM [γ-^33P-ATP]. The reaction was initiated by the addition of the Mg/ATP mix. After incubation for 40 minutes at room temperature, the reaction was stopped by the addition of phosphoric acid to a concentration of 0.5%. A reaction aliquot of 10 μL was then spotted onto a P30 filtermat and washed four times for 4 minutes in 0.425% phosphoric acid and once in methanol prior to drying and scintillation counting. Incorporated ^33P was measured using the Wallac Microbeta scintillation counter (Perkin Elmer).

Chain of Human Met (residues R974-S1390 with A1209G and V1290L) (P08581 25-1390 limits assumed, stated change not applied): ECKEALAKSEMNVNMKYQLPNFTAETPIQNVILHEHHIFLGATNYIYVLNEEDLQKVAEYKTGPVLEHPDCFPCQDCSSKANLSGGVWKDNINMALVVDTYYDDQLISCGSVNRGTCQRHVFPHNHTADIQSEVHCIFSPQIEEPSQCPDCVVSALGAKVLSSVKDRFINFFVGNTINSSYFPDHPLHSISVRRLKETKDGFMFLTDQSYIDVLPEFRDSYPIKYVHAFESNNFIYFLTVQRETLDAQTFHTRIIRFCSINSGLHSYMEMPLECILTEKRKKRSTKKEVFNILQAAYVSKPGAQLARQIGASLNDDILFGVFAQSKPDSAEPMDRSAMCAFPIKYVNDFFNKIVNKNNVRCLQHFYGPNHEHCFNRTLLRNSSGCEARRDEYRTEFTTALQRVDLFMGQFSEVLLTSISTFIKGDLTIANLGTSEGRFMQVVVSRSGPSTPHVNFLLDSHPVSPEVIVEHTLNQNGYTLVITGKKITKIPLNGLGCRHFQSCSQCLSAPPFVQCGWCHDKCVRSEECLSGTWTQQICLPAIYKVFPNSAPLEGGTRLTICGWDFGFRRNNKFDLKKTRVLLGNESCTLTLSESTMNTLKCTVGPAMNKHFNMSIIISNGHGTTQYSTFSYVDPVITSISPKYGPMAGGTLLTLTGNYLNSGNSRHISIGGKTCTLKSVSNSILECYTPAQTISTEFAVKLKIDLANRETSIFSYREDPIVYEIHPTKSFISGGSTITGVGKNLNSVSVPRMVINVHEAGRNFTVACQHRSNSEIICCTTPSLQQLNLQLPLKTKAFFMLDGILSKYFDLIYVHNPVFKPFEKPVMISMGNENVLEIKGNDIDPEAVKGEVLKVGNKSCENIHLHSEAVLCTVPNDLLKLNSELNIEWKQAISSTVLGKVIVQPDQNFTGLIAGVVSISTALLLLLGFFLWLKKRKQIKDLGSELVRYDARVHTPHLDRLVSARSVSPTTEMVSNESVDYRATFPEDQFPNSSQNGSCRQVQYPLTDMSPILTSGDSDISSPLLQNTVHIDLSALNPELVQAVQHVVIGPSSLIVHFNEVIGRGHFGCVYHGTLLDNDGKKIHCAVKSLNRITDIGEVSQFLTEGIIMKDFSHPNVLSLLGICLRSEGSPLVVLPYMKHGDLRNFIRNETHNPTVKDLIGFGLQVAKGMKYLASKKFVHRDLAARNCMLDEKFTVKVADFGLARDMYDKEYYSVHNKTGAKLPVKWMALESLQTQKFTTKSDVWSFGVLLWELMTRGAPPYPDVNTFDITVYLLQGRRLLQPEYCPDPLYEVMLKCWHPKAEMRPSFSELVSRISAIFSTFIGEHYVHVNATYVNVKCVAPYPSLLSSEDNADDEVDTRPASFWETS

SMILES | IC50 [1] | IC50 [2]
COc1cc2nccc(Oc3ccc(NC(=O)c4cn(C)cc(-c5ccc(F)cc5)c4=O)cc3F)c2nc1OC [Compound 45, N-[4-[(6,7-Dimethoxy-1,5-naphthyridin-4-yl)oxy]-3-fluorophenyl]-5-(4-fluorophenyl)-1-methyl-4-oxopyridine-3-carboxamide] | < 100 nM | < 100 nM
CNc1ncc(C(=O)Nc2ccc(Oc3ccnc4cc(OC)c(OC)nc34)c(F)c2)c(=O)n1-c1ccc(F)cc1 [Compound 99, N-[4-[(6,7-Dimethoxy-1,5-naphthyridin-4-yl)oxy]-3-fluorophenyl]-1-(4-fluorophenyl)-2-(methylamino)-6-oxopyrimidine-5-carboxamide] | < 100 nM | < 100 nM
COc1cc2nccc(Oc3ccc(NC(=O)c4c[nH]c(=S)n(-c5ccc(F)cc5)c4=O)cc3F)c2nc1OC [Compound 104, N-[4-[(6,7-Dimethoxy-1,5-naphthyridin-4-yl)oxy]-3-fluorophenyl]-3-(4-fluorophenyl)-4-oxo-2-sulfanylidene-1H-pyrimidine-5-carboxamide] | > 300 nM | > 300 nM

Next, values leading:

IC50 [1] | IC50 [2] | SMILES
< 100 nM | < 100 nM | COc1cc2nccc(Oc3ccc(NC(=O)c4cn(C5CCCC5)cc(-c5ccc(F)cc5)c4=O)cc3F)c2nc1OC [Compound 46, 1-Cyclopentyl-N-[4-[(6,7-dimethoxy-1,5-naphthyridin-4-yl)oxy]-3-fluorophenyl]-5-(4-fluorophenyl)-4-oxopyridine-3-carboxamide]
< 100 nM | < 100 nM | COc1cc2nccc(Oc3ccc(NC(=O)c4cn(C5COC5)cc(-c5ccc(F)cc5)c4=O)cc3F)c2nc1OC [Compound 47, N-[4-[(6,7-Dimethoxy-1,5-naphthyridin-4-yl)oxy]-3-fluorophenyl]-5-(4-fluorophenyl)-1-(oxetan-3-yl)-4-oxopyridine-3-carboxamide]
